Data: patent US5637731A (priority 1996, dated 1997)
“And” between values parts separate entries of the source, which are not always exact repeats. Equal values may be shown once. Read-outs that look alike come from different tables or passages of the source.

How the values were obtained:
[1] = test system: peripheral acetylcholine-like effects; test: Side effect profile: in vivo overt effects (salivation, tremor, diarrhea) after oral administration; set-up: species or system rat
Description: The use of the radioligand binding assays (^3 H-QNB and ^3 H-CD) to characterize the hydroxylated oxotremorine derivatives provides a useful first approximation for,the evaluation of the muscarinic agonist-like profile of a test compound. However, in using a prodrug methodology, intrinsic activity will not be observed until in vivo hydrolysis or metabolism to the active compound occurs. Therefore, radioligand binding data, performed on the carbonyl derivatives, will not provide leading information. As a result, the observed overt effects after oral administration to rats of the test carbonyl derivative, relative to its corresponding hydroxylated oxotremorine compound, became the primary in vivo pharmacological measure. These in vivo overt effects are attributed to the peripheral acetylcholine-like effects of the compound, such as salivation, tremor and diarrhea. The in vivo overt effects also providing dosing information for the behavioral tests of cognitive improvement.

[2] = molecular target: muscarinic cholinergic receptor; format: binding, rat; conditions: rat cerebral cortex, ^3 H-QNB 0.25 nM, 25° C., 120 minutes, pH 7.4
[3] = molecular target: muscarinic cholinergic receptor; test: [^3 H]-Cis-methyldioxolane (^3 H-CD) Binding Assay (High Affinity); conditions: rat cerebral cortex, ^3 H-CD 1.0 nM, 25° C., 120 minutes, pH 7.4; high affinity agonist binding

SMILES	Side Effect Profile minimum effective dose (MED) ([1]; (rat) po)	further results
CCCCCCCC(=O)O[C@H]1CCN(CC#CCN2CCCC2)C1=O	14 μ mol/kg	
CCOC(=O)O[C@@H]1CCN(CC#CCN(C)C)C1=O [(R)-1-[4-(Dimethylamino)-2-butynyl]-2-oxo-3-pyrrolidinyl carbonic acid ethyl ester]	127 μ mol/kg and 254 μ mol/kg	Side Effect Profile minimum effective dose (MED) ([1]; (rat) po; listed as R)-1-[4-(Dimethylamino)-2-butynyl]-2-oxo-3-pyrrolidinyl carbonic acid ethyl este): 258 μ mol/kg
CCCCOC(=O)O[C@@H]1CCN(CC#CCN2CCCC2)C1=O [(R)-2-Oxo-1-[4-(1-pyrrolidinyl)-2-butynyl]-3-pyrrolidinyl carbonic acid butyl ester]	14 μ mol/kg	
CCCCCCOC(=O)O[C@@H]1CCN(CC#CCN2CCCC2)C1=O [(R)-2-Oxo-1-[4-(1-pyrrolidinyl)-2-butynyl]-3-pyrrolidinyl carbonic acid hexyl ester]	7 μ mol/kg	
CCCC(=O)O[C@@H]1CCN(CC#CCN(C)C)C1=O [(R)-Butanoic acid 1-[4-(dimethylamino)-2-butynyl]-2-oxo-3-pyrrolidinyl ester]	127 μ mol/kg	
CCCC(=O)O[C@@H]1CCN(CC#CCN2CCCC2)C1=O [(R)-Butanoic acid 2-oxo-1-[4-(1-pyrrolidinyl)-2-butynyl]-3-pyrrolidinyl ester]	7.2 μ mol/kg	
CCCCNC(=O)O[C@@H]1CCN(CC#CCN(C)C)C1=O [(R)-Butylcarbamic acid 1-[4-(dimethylamino)-2-butynyl]-2-oxo-3-pyrrolidinyl ester]	> 340 μ mol/kg	
CCCCNC(=O)O[C@@H]1CCN(CC#CCN2CCCC2)C1=O [(R)-Butylcarbamic acid 2-oxo-1-[4-(1-pyrrolidinyl)-2-butynyl]-3-pyrrolidinyl ester]	> 243 μ mol/kg	
CCNC(=O)O[C@@H]1CCN(CC#CCN(C)C)C1=O [(R)-Ethylcarbamic acid 1-[4-(dimethylamino)-2-butynyl]-2-oxo-3-pyrrolidinyl ester]	> 510 μ mol/kg	
CCNC(=O)O[C@@H]1CCN(CC#CCN2CCCC2)C1=O [(R)-Ethylcarbamic acid 2-oxo-1-[4-(1-pyrrolidinyl)-2-butynyl]-3-pyrrolidinyl ester]	28 μ mol/kg	
CCCCCC(=O)O[C@@H]1CCN(CC#CCN(C)C)C1=O [(R)-Hexanoic acid 1-[4-(dimethylamino)-2-butynyl]-2-oxo-3-pyrrolidinyl ester]	255 μ mol/kg	
CCCCCC(=O)O[C@@H]1CCN(CC#CCN2CCCC2)C1=O [(R)-Hexanoic acid 2-oxo-1-[4-(1-pyrrolidinyl)-2-butynyl]-3-pyrrolidinyl ester]	7.0 μ mol/kg	
CCCCCCNC(=O)O[C@@H]1CCN(CC#CCN(C)C)C1=O [(R)-Hexylcarbamic acid 1-[4-(dimethylamino)-2-butynyl]-2-oxo-3-pyrrolidinyl ester]	> 530 μ mol/kg	
CCCCCCNC(=O)O[C@@H]1CCN(CC#CCN2CCCC2)C1=O [(R)-Hexylcarbamic acid 2-oxo-1-[4-(1-pyrrolidinyl)-2-butynyl]-3-pyrrolidinyl ester]	> 450 μ mol/kg	
CCCCCCCC(=O)O[C@@H]1CCN(CC#CCN(C)C)C1=O [(R)-Octanoic acid 1-[4-(dimethylamino)-2-butynyl]-2-oxo-3-pyrrolidinyl ester]	508 μ mol/kg	
CCCCCCCC(=O)O[C@@H]1CCN(CC#CCN2CCCC2)C1=O [(R)-Octanoic acid 2-oxo-1-[4-(1-pyrrolidinyl)-2-butynyl]-3-pyrrolidinyl ester]	14 μ mol/kg	
CCOC(=O)O[C@H]1CCN(CC#CCN(C)C)C1=O [(S)-1-[4-(Dimethylamino)-2-butynyl]-2-oxo-3-pyrrolidinyl carbonic acid ethyl ester]	2.2 μ mol/kg	
CCCCOC(=O)O[C@H]1CCN(CC#CCN2CCCC2)C1=O [(S)-2-Oxo-1-[4-(1-pyrrolidinyl)-2-butynyl]-3-pyrrolidinyl carbonic acid butyl ester]	0.9 μ mol/kg	
CCOC(=O)O[C@H]1CCN(CC#CCN2CCCC2)C1=O [(S)-2-Oxo-1-[4-(1-pyrrolidinyl)-2-butynyl]-3-pyrrolidinyl carbonic acid ethyl ester]	1.7 μ mol/kg	

SMILES	Side Effect Profile minimum effective dose (MED) ([1]; (rat) po)	further results
CCCCCCCCOC(=O)O[C@H]1CCN(CC#CCN2CCCC2)C1=O [(S)-2-Oxo-1-[4-(1-pyrrolidinyl)-2-butynyl]-3-pyrrolidinyl carbonic acid octyl ester]	28 μ mol/kg	
CCCC(=O)O[C@H]1CCN(CC#CCN(C)C)C1=O [(S)-Butanoic acid 1-[4-(dimethylamino)-2-butynyl]-2-oxo-3-pyrrolidinyl ester]	8.0 μ mol/kg	
CCCC(=O)O[C@H]1CCN(CC#CCN2CCCC2)C1=O [(S)-Butanoic acid 2-oxo-1-[4-(1-pyrrolidinyl)-2-butynyl]-3-pyrrolidinyl ester]	1.7 μ mol/kg	
CCCCNC(=O)O[C@H]1CCN(CC#CCN2CCCC2)C1=O [(S)-Butylcarbamic acid 1-2-oxo-[4-(1-pyrrolidinyl)-2-butynyl]-3-pyrrolidinyl ester]	225 μ mol/kg	
CCCCNC(=O)O[C@H]1CCN(CC#CCN(C)C)C1=O [(S)-Butylcarbamic acid 1-[4-(dimethylamino)-2-butynyl]-2-oxo-3-pyrrolidinyl ester]	> 493 μ mol/kg	
CCCCCCCCCC(=O)O[C@H]1CCN(CC#CCN2CCCC2)C1=O [(S)-Decanoic acid 2-oxo-1-[4-(1-pyrrolidinyl)-2-butynyl]-3-pyrrolidinyl ester]	14 μ mol/kg	
CCNC(=O)O[C@H]1CCN(CC#CCN(C)C)C1=O [(S)-Ethylcarbamic acid 1-[4-(dimethylamino)-2-butynyl]-2-oxo-3-pyrrolidinyl ester]	> 510 μ mol/kg	
CCNC(=O)O[C@H]1CCN(CC#CCN2CCCC2)C1=O [(S)-Ethylcarbamic acid 2-oxo-1-[4-(1-pyrrolidinyl)-2-butynyl]-3-pyrrolidinyl ester]	> 490 μ mol/kg	
CC(=O)O[C@@H]1CCN(CC#CCN2CCC[C@@H]2CO[Si](C)(C)C(C)(C)C)C1=O [[R-(R*,R*)]-3-Acetyloxy)-1-[4-[2-[[[(1,1-dimethylethyl)-dimethylsilyl]oxy]methyl]-1-pyrrolidinyl]-2-butynyl]-2-pyrrolidinone]		Ki [2]: > 100000 nM; Ki [3]: 10100 nM
CC(C)(C)[Si](C)(C)OC[C@@H]1CCCN1CC#CCN1CC[C@@H](O)C1=O [[R-(R*,S*)]-1-[4-[2-[[[(1,1-dimethylethyl)dimethylsilyl]oxy]methyl]-1-pyrrolidinyl]-2-butynyl]-3-hydroxy-2-pyrrolidone]		Ki [2]: 500 nM; Ki [3]: 470 nM
CC(=O)O[C@@H]1CCN(CC#CCN2CCC[C@H]2CO[Si](C)(C)C(C)(C)C)C1=O [[R-(R*,S*)]-3-(Acetoxy)-1-[4-[2-[[[(1,1-dimethylethyl)dimethylsilyl]oxy]methyl]-1-pyrrolidinyl]-2-butynyl]-1]-2-pyrrolidinone]		Ki [2]: 500000 nM; Ki [3]: 1700 nM
CC1CCN(CC#CCN2CCCC2CO[Si](C)(C)C(C)(C)C)C1=O (stereo not drawn) [[R-[(R*,R* and R*,S*)]]-1-[4-[2-[[[(1,1-dimethylethyl)dimethylsilyl]oxy]methyl]-1-pyrrolidinyl]-2-butynyl]-3-methyl-2-pyrrolidinone]		Ki [2]: 2500 nM; Ki [3]: 5600 nM
CC(C)(C)[Si](C)(C)OC[C@@H]1CCCN1CC#CCN1CC[C@H](O)C1=O [[S-(R*,R*)]-1-[4-[2-[[[(1,1-Dimethylethyl)dimethylsilyl]-oxy]methyl]-1-pyrrolidinyl]-2-butynyl]-3-hydroxy-2-pyrrolidinone]		Ki [2]: 400 nM; Ki [3]: 140 nM
CC(=O)O[C@H]1CCN(CC#CCN2CCC[C@H]2CO[Si](C)(C)C(C)(C)C)C1=O [[S-(R*,R*)]-3-(Acetyloxy)-1-[4-[2-[[[(1,1-dimethylethyl)-dimethylsilyl]oxy]methyl]-1-pyrrolidinyl]-2-butynyl]-2-pyrrolidinone]		Ki [2]: 2600 nM; Ki [3]: 79 nM
O=C1[C@@H](O)CCN1CC#CCN1CCC[C@H]1CO [[S-(R*,R*)]-3-Hydroxy-1-[4-[2-(hydroxymethyl)-1-pyrrolidinyl]-2-butynyl]-2-pyrrolidinone]		Ki [2]: > 100000 nM; Ki [3]: 34300 nM
CC(C)(C)[Si](C)(C)OC[C@H]1CCCN1CC#CCN1CC[C@H](O)C1=O [[S-(R*,S*)]-1-[4-[2-[[[(1,1-Dimethylethyl)dimethylsilyl]-oxy]methyl]-1-pyrrolidinyl]-2-butynyl]-3-hydroxy-2-pyrrolidinone]		Ki [2]: 198000 nM; Ki [3]: 1700 nM
CC(=O)O[C@H]1CCN(CC#CCN2CCC[C@@H]2CO[Si](C)(C)C(C)(C)C)C1=O [[S-(R*,S*)]-3-(Acetyloxy)-1-[4-(2-[[[(1,1-dimethylethyl)dimethylsilyl]oxy]methyl]-1-pyrrolidinyl]-2-butynyl]-2-pyrrolidinone]		Ki [2]: > 100000 nM; Ki [3]: 4200 nM
O=C1[C@@H](O)CCN1CC#CCN1CCC[C@@H]1CO [[S-(R*,S*)]-3-Hydroxy-1-[4-[2-(hydroxymethyl)-1-pyrrolidinyl]-2-butynyl]-2-pyrrolidinone]		Ki [2]: > 100000 nM; Ki [3]: 2600 nM
